This assay concerns the target T1, PDE5A1 (Homo sapiens, UniProt O76074).
T1 construct: from tissue; host or cells: human platelets from fresh donor blood (10,000 x g supernatant of sonicated lysate)
The assay is described as follows: Inhibition of type 5 phosphodiesterase (PDE5) activity, modified SPA test with human platelet lysate. Type of assay: biochemical. As to conditions: 0.5 μM cGMP, read-out: PDE5A1 inhibitory values [measured as −log IC50 (mol/l)] (converted). The method, boiled down:
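Scintillation proximity assay with [3H]cGMP tracer at 0.5 μM total cGMP, stopped after 15 min with beads containing IBMX. PDE3 and PDE2 activities suppressed with motapizone (1 μM) and a PDE2 inhibitor (10 nM). Human platelet supernatant served as the enzyme, with compound preincubated 5 min at 37° C; IC50 values from concentration-effect curves.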
With `CCC(=O)N[C@H]1CC[C@H](NC(=O)c2c(C)[nH]c3c(-c4ccc(F)cc4OCC4CC4)ncnc23)CC1` [Example E23, 4-[2-(Cyclopropylmethoxy)-4-fluorophenyl]-6-methyl-N-[trans-4-(propionylamino)cyclohexyl]-5H-pyrrolo[3,2-d]pyrimidine-7-carboxamide], the IC50 was less than 1 nM.
`CCC(=O)N1CC[C@@H](NC(=O)c2c(C)[nH]c3c(-c4cc(OC)c(F)cc4OCC4CC4)ncnc23)C1` [Example E180, 4-[2-(Cyclopropylmethoxy)-4-fluoro-5-methoxyphenyl]-6-methyl-N-[(3R)-1-propionylpyrrolidin-3-yl]-5H-pyrrolo[3,2-d]pyrimidine-7-carboxamide]: the IC50 is less than 1 nM.
As for `Cc1[nH]c2c(-c3ccc(F)cc3OCC3CC3)ncnc2c1C(=O)N[C@H]1CC[C@H](NC(=O)[C@H](C)O)CC1` [Example F14, 4-[2-(Cyclopropylmethoxy)-4-fluorophenyl]-N-(trans-4-{[(2S)-2-hydroxypropanoyl]amino}cyclohexyl)-6-methyl-5H-pyrrolo[3,2-d]pyrimidine-7-carboxamide], the IC50 is less than 1 nM.
As for `COc1ccc(-c2ncnc3c(C(=O)NC4CCN(C(C)=O)CC4)c(C)[nH]c23)c(OCC2CC2)c1` [Example E55, N-(1-acetylpiperidin-4-yl)-4-[2-(cyclopropylmethoxy)-4-methoxyphenyl]-6-methyl-5H-pyrrolo[3,2-d]pyrimidine-7-carboxamide], the IC50 was less than 1 nM.
Turning to `COc1ccc(OCC2CC2)c(-c2ncnc3c(C(=O)NC4CN(C(=O)C(C)O)CC4O)c(C)[nH]c23)c1` (mixture of isomers) [Example F120, 4-[2-(Cyclopropylmethoxy)-5-methoxyphenyl]-N-{(31R*,4R*)-4-hydroxy-1-[(2S)-2-hydroxypropanoyl]pyrrolidin-3-yl}-6-methyl-5H-pyrrolo[3,2-d]pyrimidine-7-carboxamide], the IC50 was 1 to 10 nM.
Take `COc1ccc(-c2ncnc3c(C(=O)NC4CCN(C(=O)[C@H](C)O)CC4)c(C)[nH]c23)c(OCC2CC2)c1` [Example F35, 4-[2-(Cyclopropylmethoxy)-4-methoxyphenyl]-N-{1-[(2S)-2-hydroxypropanoyl]piperidin-4-yl}-6-methyl-5H-pyrrolo[3,2-d]pyrimidine-7-carboxamide]: the IC50 is less than 1 nM.
On to `COc1cc(OCC2CC2)c(-c2ncnc3c(C(=O)N[C@H]4CC[C@H](NC(C)=O)CC4)c(C)[nH]c23)cc1F` [Example E135, N-(trans-4-Acetamidocyclohexyl)-4-[2-(cyclopropylmethoxy)-5-fluoro-4-methoxyphenyl]-6-methyl-5H-pyrrolo[3,2-d]pyrimidine-7-carboxamide], for which the IC50 is less than 1 nM.
With `CCC(=O)N1CC[C@@H](NC(=O)c2c(C)[nH]c3c(-c4ccc(OC)cc4OCC4CC4)ncnc23)C1` [Example E61, 4-[2-(Cyclopropylmethoxy)-4-methoxyphenyl]-6-methyl-N-[(3R)-1-propionylpyrrolidin-3-yl]-5H-pyrrolo[3,2-d]pyrimidine-7-carboxamide] the figure was less than 1 nM.
Take `COc1cc(-c2ncnc3c(C(=O)NC4CCN(C(C)=O)CC4)c(C)[nH]c23)c(OCC2CC2)cc1F` [Example E102, N-(1-Acetylpiperidin-4-yl)-4-[2-(cyclopropylmethoxy)-4-fluoro-5-methoxyphenyl]-6-methyl-5H-pyrrolo[3,2-d]pyrimidine-7-carboxamide]: the IC50 is less than 1 nM.
With `COCC(=O)N[C@H]1CC[C@@H](NC(=O)c2c(C)[nH]c3c(-c4cc(C(C)C)ccc4OCC4CC4)ncnc23)CC1` [Example E162, 4-[2-(Cyclopropylmethoxy)-5-(propan-2-yl)phenyl]-N-{cis-4-[(methoxyacetyl)amino]cyclohexyl}-6-methyl-5H-pyrrolo[3,2-d]pyrimidine-7-carboxamide] the figure was 1 to 10 nM; with `Cc1[nH]c2c(-c3c(OCC4CC4)ccc4c3OCO4)ncnc2c1C(=O)N[C@H]1CC[C@@H](NC(=O)CO)CC1` [Example F5, 4-[5-(Cyclopropylmethoxy)-1,3-benzodioxol-4-yl]-N-[cis-4-(glycoloylamino)cyclohexyl]-6-methyl-5H-pyrrolo[3,2-d]pyrimidine-7-carboxamide], less than 1 nM.
With `COc1ccc(OCC2CC2)c(-c2ncnc3c(C(=O)N[C@@H]4CCN(C(=O)[C@H](C)O)C4)c(C)[nH]c23)c1` [Example F48, 4-[2-(cyclopropylmethoxy)-5-methoxyphenyl]-N-{(3R)-1-[(2S)-2-hydroxypropanoyl]pyrrolidin-3-yl}-6-methyl-5H-pyrrolo[3,2-d]pyrimidine-7-carboxamide] the figure was less than 1 nM.
With `CCOc1ccc(F)cc1-c1ncnc2c(C(=O)NC3CCN(C(=O)CC)CC3)c(C)[nH]c12` [Example E53, 4-(2-Ethoxy-5-fluorophenyl)-6-methyl-N-(1-propanoylpiperidin-4-yl)-5H-pyrrolo[3,2-d]pyrimidine-7-carboxamide] the figure was 1 to 10 nM; with `CC(=O)c1ccc(OCC2CC2)c(-c2ncnc3c(C(=O)NC4CCN(C(C)=O)CC4)c(C)[nH]c23)c1` [Example E163, 4-[5-Acetyl-2-(cyclopropylmethoxy)phenyl-]-N-(1-acetylpiperidin-4-yl)-6-methyl-5H-pyrrolo[3,2-d]pyrimidine-7-carboxamide], less than 1 nM.
As to `COCC(=O)N[C@H]1CC[C@H](NC(=O)c2c(C)[nH]c3c(-c4cc(C(C)=O)ccc4OCC4CC4)ncnc23)CC1` [Example E168, 4-[5-Acetyl-2-(cyclopropylmethoxy)phenyl]-N-{trans-4-[(methoxyacetyl)amino]cyclohexyl}-6-methyl-5H-pyrrolo[3,2-d]pyrimidine-7-carboxamide], the IC50 is less than 1 nM.
In the case of `COCC(=O)N1CC[C@@H](NC(=O)c2c(C)[nH]c3c(-c4ccc(F)cc4OCC4CC4)ncnc23)C1` [Example E30, 4-[2-(Cyclopropylmethoxy)-4-fluorophenyl]-N-[(3R)-1-(methoxyacetyl)pyrrolidin-3-yl]-6-methyl-5H-pyrrolo[3,2-d]pyrimidine-7-carboxamide], the IC50 is less than 1 nM.
With `Cc1[nH]c2c(-c3cc(F)ccc3OCC3CC3)ncnc2c1C(=O)N[C@@H]1CCN(C(=O)CO)C1` [Example F28, 4-[2-(Cyclopropylmethoxy)-5-fluorophenyl]-N-[(3R)-1-(hydroxyacetyl)pyrrolidin-3-yl]-6-methyl-5H-pyrrolo[3,2-d]pyrimidine-7-carboxamide], the IC50 was 1 to 10 nM.
In the case of `COc1ccc(OCC2CC2)c(-c2ncnc3c(C(=O)N[C@@H]4CN(C(C)=O)C[C@H]4O)c(C)[nH]c23)c1` (relative stereo) [Example E192, N-[(3R*,4R*)-1-Acetyl-4-hydroxypyrrolidin-3-yl]-4-[2-(cyclopropylmethoxy)-5-methoxyphenyl]-6-methyl-5H-pyrrolo[3,2-d]pyrimidine-7-carboxamide], the IC50 was 1 to 10 nM.
Regarding `COc1cc(-c2ncnc3c(C(=O)N[C@H]4CC[C@@H](NC(C)=O)CC4)c(C)[nH]c23)c(OCC2CC2)cc1F` [Example E110, N-(cis-4-Acetamidocyclohexyl)-4-[2-(cyclopropylmethoxy)-4-fluoro-5-methoxyphenyl]-6-methyl-5H-pyrrolo[3,2-d]pyrimidine-7-carboxamide], the IC50 is less than 1 nM.
In the case of `COc1cc(-c2ncnc3c(C(=O)N[C@H]4CC[C@@H](NC(=O)[C@H](C)O)CC4)c(C)[nH]c23)c(OCC2CC2)cc1F` [Example F70, 4-[2-(Cyclopropylmethoxy)-4-fluoro-5-methoxyphenyl]-N-(cis-4-{[(2S)-2-hydroxypropanoyl]amino}cyclohexyl)-6-methyl-5H-pyrrolo[3,2-d]pyrimidine-7-carboxamide], the IC50 was less than 1 nM.
Regarding `COc1cc(OCC2CC2)c(-c2ncnc3c(C(=O)N[C@H]4CC[C@@H](NC(=O)[C@H](C)O)CC4)c(C)[nH]c23)cc1F` [Example F88, 4-[2-(Cyclopropylmethoxy)-5-fluoro-4-methoxyphenyl]-N-(cis-4-{[(2S)-2-hydroxypropanoyl]amino}cyclohexyl)-6-methyl-5H-pyrrolo[3,2-d]pyrimidine-7-carboxamide], the IC50 is less than 1 nM.
Turning to `COc1ccc(-c2ncnc3c(C(=O)N[C@@H]4CN(C(C)=O)C[C@H]4O)c(C)[nH]c23)c(OCC2CC2)c1` (relative stereo) [Example E63, N-[(3R*,4R*)-1-acetyl-4-hydroxypyrrolidin-3-yl]-4-[2-(cyclopropylmethoxy)-4-methoxyphenyl]-6-methyl-5H-pyrrolo[3,2-d]pyrimidine-7-carboxamide], the IC50 was less than 1 nM.
On to `Cc1[nH]c2c(-c3c(OCC4CC4)ccc4c3OCO4)ncnc2c1C(=O)N[C@@H]1CCN(C(=O)[C@H](C)O)C1` [Example F8, 4-[5-(Cyclopropylmethoxy)-1,3-benzodioxol-4-yl]-N-{(3R)-1-[(2S)-2-hydroxypropanoyl]pyrrolidin-3-yl}-6-methyl-5H-pyrrolo[3,2-d]pyrimidine-7-carboxamide], for which the IC50 was less than 1 nM.
As for `Cc1[nH]c2c(-c3c(OCC4CC4)ccc4c3OCO4)ncnc2c1C(=O)N[C@@H]1CN(C(=O)CO)C[C@H]1O` (relative stereo) [Example F9, 4-[5-(Cyclopropylmethoxy)-1,3-benzodioxol-4-yl]-N-[(3R*,4R*)-1-glycoloyl-4-hydroxypyrrolidin-3-yl]-6-methyl-5H-pyrrolo[3,2-d]pyrimidine-7-carboxamide], the IC50 is less than 1 nM.
As for `COc1cc(OCC2CC2)c(-c2ncnc3c(C(=O)NC4CCN(C(C)=O)CC4)c(C)[nH]c23)cc1F` [Example E131, N-(1-Acetylpiperidin-4-yl)-4-[2-(cyclopropylmethoxy)-5-fluoro-4-methoxyphenyl]-6-methyl-5H-pyrrolo[3,2-d]pyrimidine-7-carboxamide], the IC50 is less than 1 nM.
Turning to `CC(=O)N1CCC(NC(=O)c2c(C)[nH]c3c(-c4cc(C)c(F)cc4OCC4CC4)ncnc23)CC1` [Example E119, N-(1-Acetylpiperidin-4-yl)-4-[2-(cyclopropylmethoxy)-4-fluoro-5-methylphenyl]-6-methyl-5H-pyrrolo[3,2-d]pyrimidine-7-carboxamide], the IC50 is less than 1 nM.

The record behind these values is patent US9376442B2, “Methylpyrrolopyrimidinecarboxamides” (Takeda GmbH, priority 2009, dated 2016).
